Laboratory results reported in paper PMC7956753, “Development of ^18F-Labeled Radiotracers for PET Imaging of the Adenosine A2A Receptor: Synthesis, Radiolabeling and Preliminary Biological Evaluation” (International Journal of Molecular Sciences, 2021).
Several values for one entry are separate records, joined by “and”; a condition that tells them apart may be missing. Equal entries are not always repeated. Where two headings read alike, the source gives them in different places.

Experiments:
[1] = target: T1, human A1R (Homo sapiens, UniProt P30542); assay: In vitro radioligand binding assay with [3H]DPCPX on membranes of CHO-K1 cells stably transfected with human A1R
T1 sequence (P30542 1-326): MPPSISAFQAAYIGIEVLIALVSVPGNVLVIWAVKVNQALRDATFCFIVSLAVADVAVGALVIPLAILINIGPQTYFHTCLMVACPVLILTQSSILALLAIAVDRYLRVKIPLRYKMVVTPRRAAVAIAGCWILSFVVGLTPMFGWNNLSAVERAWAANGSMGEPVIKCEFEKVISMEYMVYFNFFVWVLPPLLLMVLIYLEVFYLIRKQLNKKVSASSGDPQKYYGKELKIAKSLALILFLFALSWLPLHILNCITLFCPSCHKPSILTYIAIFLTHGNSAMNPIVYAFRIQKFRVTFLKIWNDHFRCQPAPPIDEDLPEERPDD

[2] = target: human A2AR (Homo sapiens, UniProt P29274); assay: In vitro radioligand binding assay with [3H]ZM241385 on membranes of CHO-K1 cells stably transfected with human A2AR; details: for Ki: in-house, mean ± standard deviation (n ≥ 3) or mean (n = 2, single values in brackets), Cheng-Prusoff
[3] = read-out: Ki(hA1R), in-house, mean ± standard deviation (n ≥ 3) or mean (n = 2, single values in brackets), Cheng-Prusoff

Chain of human A2AR (P29274 whole entry): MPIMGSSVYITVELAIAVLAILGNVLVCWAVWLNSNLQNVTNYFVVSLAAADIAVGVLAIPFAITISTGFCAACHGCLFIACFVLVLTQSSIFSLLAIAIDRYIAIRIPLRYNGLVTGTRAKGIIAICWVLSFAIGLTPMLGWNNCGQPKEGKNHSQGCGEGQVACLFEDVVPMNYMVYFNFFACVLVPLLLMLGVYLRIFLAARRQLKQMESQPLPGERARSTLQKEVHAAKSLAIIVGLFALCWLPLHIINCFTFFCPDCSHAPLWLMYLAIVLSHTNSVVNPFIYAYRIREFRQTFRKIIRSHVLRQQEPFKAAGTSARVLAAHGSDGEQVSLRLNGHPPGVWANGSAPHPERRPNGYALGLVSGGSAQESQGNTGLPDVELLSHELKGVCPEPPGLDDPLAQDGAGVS

**Q.** Which results are given for “1-((6-Fluoropyridin-2-yl)methyl)-4-(furan-2-yl)-1H-pyrazolo[3,4-d]pyrimidin-6-amine [PPY6]”?
**A.** Ki [1, 3]: 566 nM; Ki ([2]; read-out: Ki(hA2AR)): 27.1 ± 2.6 nM

**Q.** With “1-((6-Fluoropyridin-3-yl)methyl)-4-(furan-2-yl)-1H-pyrazolo[3,4-d]pyrimidin-6-amine [PPY5]” as the compound, how does the Ki [1, 3] read?
**A.** 689 nM

**Q.** What about the Ki ([2]; read-out: Ki(hA2AR)) of the same compound?
**A.** 25.7 ± 0.9 nM

**Q.** With “2-((6-Amino-4-(furan-2-yl)-1H-pyrazolo[3,4-d]pyrimidin-1-yl)methyl)-5-fluoro-benzonitrile [PPY12]” as the compound, how does the Ki [1, 3] read?
**A.** 810 nM

**Q.** What about the Ki ([2]; read-out: Ki(hA2AR)) of the same compound?
**A.** 66.7 nM

**Q.** `Nc1nc(-c2ccco2)c2cnn(Cc3ccc(F)cc3)c2n1` [PPY1, 1-(4-Fluorobenzyl)-4-(furan-2-yl)-1H-pyrazolo[3,4-d]pyrimidin-6-amine] was tested. Which Ki [1] did it give?
**A.** 220 nM

**Q.** And the Ki ([2]; Ki(hA2AR))?
**A.** 5.3 nM and 5.29 nM

**Q.** `Nc1nc(-c2ccco2)c2cnn(Cc3ccccc3F)c2n1` [PPY2, 1-(2-Fluorobenzyl)-4-(furan-2-yl)-1H-pyrazolo[3,4-d]pyrimidin-6-amine] was tested. Which Ki ([2]; Ki(hA2AR)) did it give?
**A.** 2.13 ± 0.42 nM

**Q.** And the “increase of A2AR binding affinity compared with PPY1” value ([2]; ortho- vs para-fluorine)?
**A.** 2.5 fold

**Q.** What about the Ki ([2]; read-out: Ki(hA2AR)) of the same compound?
**A.** 2.1 nM

**Q.** Which Ki [1] does the source give for `Nc1nc(-c2ccco2)c2cnn(Cc3cccc(F)c3)c2n1` [PPY3, 1-(3-Fluorobenzyl)-4-(furan-2-yl)-1H-pyrazolo[3,4-d]pyrimidin-6-amine] here?
**A.** 132 nM

**Q.** And the Ki ([2]; Ki(hA2AR))?
**A.** 3.6 ± 1.29 nM

**Q.** What about the “decrease of A2AR binding affinity compared with PPY” value ([2]; chlorine (PPY) exchanged for fluorine) of the same compound?
**A.** 3 fold

**Q.** For `Nc1nc(-c2ccco2)c2cnn(Cc3cccnc3F)c2n1` [PPY4, 1-((2-Fluoropyridin-3-yl)methyl)-4-(furan-2-yl)-1H-pyrazolo[3,4-d]pyrimidin-6-amine], which Ki [1] is on record?
**A.** 822 nM

**Q.** And the Ki ([2]; Ki(hA2AR))?
**A.** 47.8 ± 4.8 nM

**Q.** Which Ki [1] does the source give for `Nc1nc(-c2ccco2)c2cnn(Cc3ccnc(F)c3)c2n1` [PPY7, 1-((2-Fluoropyridin-4-yl)methyl)-4-(furan-2-yl)-1H-pyrazolo[3,4-d]pyrimidin-6-amine] here?
**A.** 2880 nM

**Q.** And the Ki ([2]; Ki(hA2AR))?
**A.** 161 ± 19 nM

**Q.** For `Nc1nc(-c2ccco2)c2cnn(Cc3ccc(Br)cc3F)c2n1` [PPY8, 1-(4-Bromo-2-fluorobenzyl)-4-(furan-2-yl)-1H-pyrazolo[3,4-d]pyrimidin-6-amine], which Ki [1] is on record?
**A.** 31.3 ± 15.5 nM

**Q.** And the Ki ([2]; Ki(hA2AR))?
**A.** 0.93 ± 0.1 nM

**Q.** And the “increase of A2AR binding affinity compared with PPY2” value ([2]; additional bromine)?
**A.** 2 fold

**Q.** Which Ki ([2]; Ki(hA2AR)) does the source give for `Nc1nc(-c2ccco2)c2cnn(Cc3ccc(F)cc3Br)c2n1` [PPY9, 1-(2-Bromo-4-fluorobenzyl)-4-(furan-2-yl)-1H-pyrazolo[3,4-d]pyrimidin-6-amine] here?
**A.** 34.1 nM

**Q.** Which Ki [1] does the source give for `Nc1nc(-c2ccco2)c2cnn(Cc3cc(F)cc(Br)c3)c2n1` [PPY10, 1-(3-Bromo-5-fluorobenzyl)-4-(furan-2-yl)-1H-pyrazolo[3,4-d]pyrimidin-6-amine] here?
**A.** 160 nM

**Q.** What about the Ki ([2]; Ki(hA2AR)) of the same compound?
**A.** 14.2 nM

**Q.** For `Nc1nc(-c2ccco2)c2cnn(Cc3c(F)cccc3Br)c2n1` [PPY11, 1-(2-Bromo-6-fluorobenzyl)-4-(furan-2-yl)-1H-pyrazolo[3,4-d]pyrimidin-6-amine], which Ki [1] is on record?
**A.** 162 ± 22 nM

**Q.** And the Ki ([2]; Ki(hA2AR))?
**A.** 2.35 ± 0.3 nM

**Q.** How did the Ki [1] turn out when `N#Cc1cc(F)cc(Cn2ncc3c(-c4ccco4)nc(N)nc32)c1` [PPY14, 3-((6-Amino-4-(furan-2-yl)-1H-pyrazolo[3,4-d]pyrimidin-1-yl)methyl)-5-fluoro-benzonitrile] was run?
**A.** 954 nM

**Q.** What about the Ki ([2]; Ki(hA2AR)) of the same compound?
**A.** 291 nM

**Q.** What does the source list for `N#Cc1cccc(F)c1Cn1ncc2c(-c3ccco3)nc(N)nc21` [PPY15, 2-((6-Amino-4-(furan-2-yl)-1H-pyrazolo[3,4-d]pyrimidin-1-yl)methyl)-3-fluoro-benzonitrile]?
**A.** Ki [1]: 470 nM; Ki ([2]; Ki(hA2AR)): 12.3 nM

**Q.** With `Nc1nc(-c2ccco2)c2cnn(Cc3cccc(CCF)c3)c2n1` [PPY16, 1-(3-(2-Fluoroethyl)benzyl)-4-(furan-2-yl)-1H-yrazolo[3,4-d]pyrimidin-6-amine] as the compound, how does the Ki [1] read?
**A.** 69.2 ± 32.8 nM

**Q.** What about the Ki ([2]; Ki(hA2AR)) of the same compound?
**A.** 1.63 ± 0.22 nM

**Q.** `Nc1nc(-c2ccco2)c2cnn(Cc3cccc(OCCF)c3)c2n1` [PPY17, 1-(3-(2-Fluoroethoxy)benzyl)-4-(furan-2-yl)-1H-pyrazolo[3,4-d]pyrimidin-6-amine] was tested. Which Ki [1] did it give?
**A.** 215 ± 38 nM

**Q.** And the Ki ([2]; Ki(hA2AR))?
**A.** 4.5 ± 0.99 nM

**Q.** How did the Ki ([2]; Ki(hA2AR)) turn out when `Nc1nc(-c2ccco2)c2cnn(Cc3cccc(OCCCF)c3)c2n1` [PPY18, 1-(3-(3-Fluoropropoxy)benzyl)-4-(furan-2-yl)-1H-pyrazolo[3,4-d]pyrimidin-6-amine] was run?
**A.** 76.8 ± 12.9 nM

**Q.** How did the Ki [1] turn out when `Nc1nc(-c2ccco2)c2cnn(CCc3ccccc3F)c2n1` [PPY19, 1-(2-Fluorophenethyl)-4-(furan-2-yl)-1H-pyrazolo[3,4-d]pyrimidin-6-amine] was run?
**A.** 245 nM

**Q.** What about the Ki ([2]; Ki(hA2AR)) of the same compound?
**A.** 107 nM

**Q.** Which results are given for `Nc1nc(-c2ccco2)c2cnn(C(=O)c3ccccc3F)c2n1` [PPY21, (6-Amino-4-(furan-2-yl)-1H-pyrazolo[3,4-d]pyrimidin-1-yl)(2-fluorophenyl)-methanone]?
**A.** Ki [1]: 1550 nM; Ki ([2]; Ki(hA2AR)): 283 nM

**Q.** With `Nc1nc(-c2ccco2)c2cnn(Cc3ccccc3)c2n1` [PPY22, 1-Benzyl-4-(furan-2-yl)-1H-pyrazolo[3,4-d]pyrimidin-6-amine] as the compound, how does the Ki ([2]; Ki(hA2AR)) read?
**A.** 1.68 ± 0.14 nM

**Q.** For `Nc1nc(-c2ccco2)c2cnn(Cc3cccc(Cl)c3)c2n1` [PPY, reference compound], which Ki ([2]; read-out: Ki(hA2AR)) is on record?
**A.** 1 ± 0.09 nM

**Q.** “(6-Amino-4-(furan-2-yl)-1H-pyrazolo[3,4-d]pyrimidin-1-yl)(2-fluorophenyl)-methanone [PPY20]” was tested. Which Ki [1, 3] did it give?
**A.** 1420 nM

**Q.** What about the Ki ([2]; read-out: Ki(hA2AR)) of the same compound?
**A.** 275 nM
